Test results as given in patent US8877741B2, “Pyrrolidine derivatives, pharmaceutical compositions and uses thereof” (Boehringer Ingelheim International GmbH, priority 2013, dated 2014).
pIC50: −log10 of the molar value.

Each compound was assayed against human ACC2 (Homo sapiens (Human), UniProt O00763) (assay: ACC2 assay, spectrophotometric 384 well assay (NADH-linked kinetic method)). Conditions: human ACC2 construct lacking the 128 N-terminal amino acids; coupled lactate dehydrogenase/pyruvate kinase reaction, 340 nm, 25° C.
Format: biochemical
Method in brief: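 N-terminally truncated human ACC2 (lacking 128 residues), expressed in insect cells, was coupled to pyruvate kinase/lactate dehydrogenase, with NADH and acetyl-CoA at 2000 μM and ATP at 500 μM final. The OD340 decrease was followed over 15 min at 25 °C. Slopes were normalised to vehicle and no-acetyl-CoA controls, and IC50 came from four-parameter regression.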

human ACC2, sequence (O00763 129-2458): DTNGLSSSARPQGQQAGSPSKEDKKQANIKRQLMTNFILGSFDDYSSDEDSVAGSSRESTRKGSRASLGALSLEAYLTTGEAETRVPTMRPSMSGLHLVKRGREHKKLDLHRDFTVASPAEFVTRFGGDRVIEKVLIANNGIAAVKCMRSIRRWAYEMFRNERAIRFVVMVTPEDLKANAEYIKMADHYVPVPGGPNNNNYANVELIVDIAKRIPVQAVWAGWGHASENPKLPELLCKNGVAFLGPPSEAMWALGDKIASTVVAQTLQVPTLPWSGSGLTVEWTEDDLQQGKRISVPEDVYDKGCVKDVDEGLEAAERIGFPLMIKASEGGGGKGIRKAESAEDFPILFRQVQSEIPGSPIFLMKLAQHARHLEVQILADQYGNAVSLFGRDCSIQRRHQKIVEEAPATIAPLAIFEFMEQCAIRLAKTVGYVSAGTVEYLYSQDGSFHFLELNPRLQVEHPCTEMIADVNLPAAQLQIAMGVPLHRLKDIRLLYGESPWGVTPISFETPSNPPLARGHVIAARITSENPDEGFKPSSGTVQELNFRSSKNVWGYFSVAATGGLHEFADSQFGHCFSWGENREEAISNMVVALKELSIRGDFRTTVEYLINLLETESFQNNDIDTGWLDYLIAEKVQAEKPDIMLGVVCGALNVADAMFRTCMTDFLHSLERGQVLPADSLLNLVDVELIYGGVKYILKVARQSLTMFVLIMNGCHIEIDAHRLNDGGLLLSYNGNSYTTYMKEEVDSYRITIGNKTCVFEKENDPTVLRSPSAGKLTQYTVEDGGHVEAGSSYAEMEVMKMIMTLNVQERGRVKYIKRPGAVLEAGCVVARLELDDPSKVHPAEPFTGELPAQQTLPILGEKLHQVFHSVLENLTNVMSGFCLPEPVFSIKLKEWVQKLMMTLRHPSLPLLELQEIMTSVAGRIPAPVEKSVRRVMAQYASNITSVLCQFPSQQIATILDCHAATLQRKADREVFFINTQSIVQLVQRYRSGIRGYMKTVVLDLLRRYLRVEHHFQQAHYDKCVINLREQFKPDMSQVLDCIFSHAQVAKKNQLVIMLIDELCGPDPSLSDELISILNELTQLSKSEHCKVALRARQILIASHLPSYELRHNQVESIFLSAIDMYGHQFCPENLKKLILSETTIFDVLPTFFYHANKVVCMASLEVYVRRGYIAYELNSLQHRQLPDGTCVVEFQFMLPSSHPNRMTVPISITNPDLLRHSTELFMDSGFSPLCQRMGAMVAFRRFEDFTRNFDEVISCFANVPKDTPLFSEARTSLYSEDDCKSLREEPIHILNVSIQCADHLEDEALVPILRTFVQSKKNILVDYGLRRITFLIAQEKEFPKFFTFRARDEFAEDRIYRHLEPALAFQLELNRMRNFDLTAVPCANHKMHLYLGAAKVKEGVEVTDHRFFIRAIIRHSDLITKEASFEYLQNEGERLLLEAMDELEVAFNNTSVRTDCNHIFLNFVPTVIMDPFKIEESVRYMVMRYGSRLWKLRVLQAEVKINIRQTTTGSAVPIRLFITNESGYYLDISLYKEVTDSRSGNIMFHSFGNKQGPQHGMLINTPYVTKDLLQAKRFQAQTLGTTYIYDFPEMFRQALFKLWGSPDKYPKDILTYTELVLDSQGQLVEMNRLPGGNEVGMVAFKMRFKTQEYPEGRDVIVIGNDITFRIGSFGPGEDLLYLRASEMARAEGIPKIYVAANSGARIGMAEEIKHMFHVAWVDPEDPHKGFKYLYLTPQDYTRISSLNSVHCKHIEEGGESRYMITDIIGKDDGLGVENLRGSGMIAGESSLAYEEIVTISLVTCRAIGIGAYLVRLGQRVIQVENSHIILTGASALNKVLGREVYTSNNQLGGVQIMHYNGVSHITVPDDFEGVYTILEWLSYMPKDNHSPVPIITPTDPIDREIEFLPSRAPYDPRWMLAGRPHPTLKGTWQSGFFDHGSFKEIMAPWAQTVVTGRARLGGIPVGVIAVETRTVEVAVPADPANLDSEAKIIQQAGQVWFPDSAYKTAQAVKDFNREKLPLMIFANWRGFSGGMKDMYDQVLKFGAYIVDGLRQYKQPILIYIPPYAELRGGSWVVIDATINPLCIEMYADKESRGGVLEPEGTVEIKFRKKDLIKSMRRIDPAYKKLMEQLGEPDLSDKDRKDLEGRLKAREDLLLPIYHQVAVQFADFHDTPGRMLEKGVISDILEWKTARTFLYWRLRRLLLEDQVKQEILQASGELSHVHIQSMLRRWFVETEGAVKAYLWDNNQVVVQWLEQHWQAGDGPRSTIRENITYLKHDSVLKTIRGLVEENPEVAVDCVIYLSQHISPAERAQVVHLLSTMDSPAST

`CCCOc1ccc(N2CCC(Oc3ccc([C@H](C)NC(C)=O)cc3)C2)nc1` (stereo partly shown) [Example 1.2] and `CC(=O)N[C@@H](C)c1ccc(OC2CCN(c3ccc(OCCC(F)F)cn3)C2)cc1` (stereo partly shown) [Example 1.93] are within 0.2 log units of each other in pIC50: 6.84 for the first, 6.97 for the second.

Compared with `CC(C)Oc1cc(N2CCC(Oc3ccc([C@H](C)NC(=O)N(C)C)cc3)C2)ccn1` (stereo partly shown) [Example 3.2], `CC(C)Oc1cc(N2CCC(Oc3ccc([C@H](C)NC(=O)C(C)F)cc3)C2)ccn1` (stereo partly shown) [Example 2.13] is 1.09 log units lower in pIC50: 7.19 for the first, 6.10 for the second. The first is the more potent here.

`CCCOc1nccc(N2CC[C@@H](Oc3ccc([C@H](C)NC(C)=O)cc3)C2)c1C` [Example 9.55] and `CC(=O)N[C@@H](C)c1ccc(O[C@@H]2CCN(c3ccnc(OCC(C)C)c3C)C2)cc1` [Example 9.58] are within 0.2 log units of each other in pIC50: 7.23 for the first, 7.26 for the second.

Compared with `CCC(=O)N[C@@H](C)c1ccc(OC2CCN(c3ccnc(N4CCC(F)(F)C4)c3F)C2)cc1` (stereo partly shown) [Example 5.3], `COC(=O)N[C@@H](C)c1ccc(OC2CCN(c3ccnc(N4CCC(F)(F)C4)c3F)C2)cc1` (stereo partly shown) [Example 4.7] is 0.60 log units lower in pIC50: 7.47 for the first, 6.87 for the second. The first is the more potent here.

`CC(=O)N[C@@H](C)c1ccc(O[C@@H]2CCN(c3nc(N4CCCCC4)c(F)cc3F)C2)cc1` [Example 10.6] and `CC(=O)N[C@@H](C)c1ccc(O[C@@H]2CCN(c3nc(N4CCCC4)c(F)cc3F)C2)cc1` [Example 10.8] are within 0.2 log units of each other in pIC50: 6.08 for the first, 6.23 for the second.

`CCCOc1cc(N2CCC(Oc3ccc([C@H](C)NC(C)=O)cc3)C2)ccn1` (stereo partly shown) [Example 1.16] and `CC(=O)N[C@@H](C)c1ccc(O[C@@H]2CCN(c3ccnc(OCCC(C)C)c3)C2)cc1` [Example 9.34] are within 0.2 log units of each other in pIC50: 6.94 for the first, 7.02 for the second.

Going from `CCN(C)C(=O)N[C@@H](C)c1ccc(OC2CCN(c3ccc(OCC4CC4(F)F)cn3)C2)cc1` (stereo partly shown) [Example 3.8] to `CC(=O)N[C@@H](C)c1ccc(O[C@@H]2CCN(c3ccc(OC[C@@H]4CC4(F)F)cn3)C2)cc1` [Example 1.117], the pIC50 falls from 7.05 to 6.12 (0.93 log units). The first is the more potent here.

Going from `CC(=O)N[C@@H](C)c1ccc(O[C@@H]2CCN(c3ccnc(OCC4CCC4)c3)C2)cc1` [Example 9.15] to `CC(=O)N[C@@H](C)c1ccc(OC2CCN(c3ccnc(OCC4CC4)c3)C2)cc1` (stereo partly shown) [Example 1.35], the pIC50 falls from 7.40 to 6.38 (1.02 log units).

Compared with `C[C@H](NC(=O)C1CC1)c1ccc(O[C@@H]2CCN(c3ccnc(OCC(F)F)c3)C2)cc1` [Example 9.42], `CC(C)COc1cc(N2CC[C@@H](Oc3ccc([C@H](C)NC(=O)C4CC4)cc3)C2)ccn1` [Example 9.36] is 0.28 log units higher in pIC50: 6.40 for the first, 6.68 for the second.

Going from `CC(=O)N[C@@H](C)c1ccc(O[C@@H]2CCN(c3nccc(OCC4CC4)c3F)C2)cc1` [Example 9.67] to `COc1c(N2CC[C@@H](Oc3ccc([C@H](C)NC(C)=O)cc3)C2)ccnc1OCC1CC1` [Example 1.127], the pIC50 rises from 6.84 to 7.51 (0.67 log units). The second is the more potent here.

Going from `CC(=O)N[C@@H](C)c1ccc(OC2CCN(c3nc(C)ccc3F)C2)cc1` (stereo partly shown) [Example 1.44] to `CC(=O)N[C@@H](C)c1ccc(O[C@@H]2CCN(c3nc(N(C)C)ccc3F)C2)cc1` [Example 10.18], the pIC50 falls from 6.59 to 6.07 (0.52 log units).

Going from `C[C@H](NC(=O)N1CCOCC1)c1ccc(OC2CCN(c3ccnc(OCC4CC4)c3)C2)cc1` (stereo partly shown) [Example 3.12] to `C[C@H](NC(=O)[C@@H](C)O)c1ccc(OC2CCN(c3ccnc(OCC4CC4)c3)C2)cc1` (stereo partly shown) [Example 2.78], the pIC50 falls from 6.84 to 6.10 (0.74 log units). The first is the more potent here.

`CC(=O)N[C@@H](C)c1ccc(O[C@@H]2CCN(c3ccnc(NCC(C)(C)O)c3F)C2)cc1` [Example 10.53] and `CCNc1nccc(N2CC[C@@H](Oc3ccc([C@H](C)NC(C)=O)cc3)C2)c1F` [Example 1.115] are within 0.2 log units of each other in pIC50: 6.67 for the first, 6.59 for the second.

Compared with `C[C@H](NC(=O)CO)c1ccc(OC2CCN(c3ccnc(OCC(F)F)c3)C2)cc1` (stereo partly shown) [Example 2.115], `C[C@H](NC(=O)C(F)F)c1ccc(OC2CCN(c3ccnc(OCC(F)F)c3)C2)cc1` (stereo partly shown) [Example 2.97] is 0.79 log units higher in pIC50: 6.06 for the first, 6.85 for the second. The second is the more potent here.

Going from `CC#CCOc1cc(N2CC[C@@H](Oc3ccc([C@H](C)NC(C)=O)cc3)C2)ccn1` [Example 9.8] to `C=C(C)COc1cc(N2CC[C@@H](Oc3ccc([C@H](C)NC(C)=O)cc3)C2)ccn1` [Example 9.17], the pIC50 rises from 6.57 to 7.11 (0.54 log units).

`COC[C@@H]1CCCN1c1cccc(N2CC[C@@H](Oc3ccc([C@H](C)NC(C)=O)cc3)C2)n1` [Example 10.46] and `CC(=O)N[C@@H](C)c1ccc(OC2CCN(c3cccc(C4CCCC4)n3)C2)cc1` (stereo partly shown) [Example 1.84] are within 0.2 log units of each other in pIC50: 6.76 for the first, 6.94 for the second.

`CC(=O)N[C@@H](C)c1ccc(O[C@@H]2CCN(c3ccnc(OCC4CC4C#N)c3)C2)cc1` (stereo partly shown) [Example 9.24] and `CC(=O)N[C@@H](C)c1ccc(O[C@@H]2CCN(c3ccnc(OCCC4CC4)c3)C2)cc1` [Example 9.14] are within 0.2 log units of each other in pIC50: 7.26 for the first, 7.12 for the second.

Compared with `CCN(CCO)c1cccc(N2CC[C@@H](Oc3ccc([C@H](C)NC(C)=O)cc3)C2)n1` [Example 10.43], `CC(=O)N[C@@H](C)c1ccc(OC2CCN(c3cccc(C)n3)C2)cc1` (stereo partly shown) [Example 1.18] is 0.67 log units higher in pIC50: 6.11 for the first, 6.78 for the second.

Compared with `CC(C)Oc1cc(N2CCC(Oc3ccc([C@H](C)NC(=O)C4CCOC4)cc3)C2)ccn1` (stereo partly shown) [Example 2.15], `CC(C)Oc1cc(N2CCC(Oc3ccc([C@H](C)NC(=O)CC#N)cc3)C2)ccn1` (stereo partly shown) [Example 2.7] is 0.30 log units higher in pIC50: 6.11 for the first, 6.41 for the second. The second is the more potent here.

First: C[C@H](NC(=O)c1cnn(C)c1Cl)c1ccc(OC2CCN(c3ccnc(OCC(F)F)c3)C2)cc1 (stereo partly shown) [Example 2.114]
Second: CCCOc1cc(N2CC[C@@H](Oc3ccc([C@H](C)NC(=O)c4cncs4)cc3)C2)ccn1 [Example 9.64]
The pIC50 of the first is 1.25 log units lower: 6.21 for the first, 7.46 for the second. The second is the more potent here.

Compared with `Cc1cnc(OCC2CC2)cc1N1CCC(Oc2ccc([C@H](C)NC(=O)N(C)C)cc2)C1` (stereo partly shown) [Example 1.56], `C[C@H](NC(=O)C(F)(F)F)c1ccc(OC2CCN(c3ccnc(OCC4CC4)c3)C2)cc1` (stereo partly shown) [Example 7.3] is 1.04 log units higher in pIC50: 6.23 for the first, 7.27 for the second. The second is the more potent here.

First: CCN(C)c1nccc(N2CC[C@@H](Oc3ccc([C@H](C)NC(C)=O)cc3)C2)c1F [Example 10.14]
Second: CCCN(C)c1nccc(N2CC[C@@H](Oc3ccc([C@H](C)NC(C)=O)cc3)C2)c1F [Example 1.103]
The pIC50 of the first is 0.20 log units higher: 7.35 for the first, 7.15 for the second.

Compared with `CC(C)Oc1cc(N2CCC(Oc3ccc([C@H](C)NC(=O)C(C)C#N)cc3)C2)ccn1` (stereo partly shown) [Example 2.23], `CC(C#N)C(=O)N[C@@H](C)c1ccc(OC2CCN(c3ccnc(OCC4CC4)c3)C2)cc1` (stereo partly shown) [Example 2.83] is 0.67 log units higher in pIC50: 6.01 for the first, 6.68 for the second.

`C[C@H](NC(=O)c1ccon1)c1ccc(OC2CCN(c3ccnc(OCC4CC4)c3)C2)cc1` (stereo partly shown) [Example 2.70] and `C[C@H](NC(=O)c1ccno1)c1ccc(OC2CCN(c3ccnc(OCC4CC4)c3)C2)cc1` (stereo partly shown) [Example 2.85] are within 0.2 log units of each other in pIC50: 7.00 for the first, 6.98 for the second.

Going from `CNC(=O)c1cccc(C(=O)N[C@@H](C)c2ccc(OC3CCN(c4ccc(OCC5CC5)cc4)C3)cc2)n1` (stereo partly shown) [Example 2.2] to `CC(=O)Nc1nc(C)c(C(=O)N[C@@H](C)c2ccc(O[C@@H]3CCN(c4ccnc(OCC5CC5)c4)C3)cc2)s1` [Example 1.43], the pIC50 rises from 6.15 to 7.23 (1.08 log units).

`CC(=O)N[C@@H](C)c1ccc(OC2CCN(c3ccc(OCC(C)(F)F)cn3)C2)cc1` (stereo partly shown) [Example 1.91] and `CCOc1ccc(N2CCC(Oc3ccc([C@H](C)NC(C)=O)cc3)C2)cn1` (stereo partly shown) [Example 1.5] are within 0.2 log units of each other in pIC50: 6.18 for the first, 6.29 for the second.

First: CC(=O)N[C@@H](C)c1ccc(OC2CCN(c3ccc(F)c(C)n3)C2)cc1 (stereo partly shown) [Example 1.65]
Second: CCOc1nccc(N2CC[C@@H](Oc3ccc([C@H](C)NC(C)=O)cc3)C2)c1F [Example 9.86]
The pIC50 of the first is 0.24 log units higher: 6.97 for the first, 6.73 for the second. The first is the more potent here.

`CC(=O)N[C@@H](C)c1ccc(O[C@@H]2CCN(c3ccnc(OC4CCCC4)c3Cl)C2)cc1` [Example 9.81] and `CC(=O)N[C@@H](C)c1ccc(O[C@@H]2CCN(c3ccnc(OCC4CC4(F)F)c3Cl)C2)cc1` (stereo partly shown) [Example 9.71] are within 0.2 log units of each other in pIC50: 7.28 for the first, 7.35 for the second.

`C[C@H](NC(=O)N(C)C)c1ccc(OC2CCN(c3ccnc(N4CCC(F)(F)C4)c3F)C2)cc1` (stereo partly shown) [Example 3.22] and `C[C@H](NC(=O)C1(C)CC1)c1ccc(OC2CCN(c3ccnc(N4CCC(F)(F)C4)c3F)C2)cc1` (stereo partly shown) [Example 2.124] are within 0.2 log units of each other in pIC50: 7.30 for the first, 7.14 for the second.

Compared with `Cc1[nH]ncc1C(=O)N[C@@H](C)c1ccc(OC2CCN(c3ccc(OCC4CC4(F)F)cn3)C2)cc1` (stereo partly shown) [Example 2.118], `C[C@H](NC(=O)N1CCCC1)c1ccc(OC2CCN(c3ccc(OCC4CC4(F)F)cn3)C2)cc1` (stereo partly shown) [Example 3.18] is 0.40 log units lower in pIC50: 6.77 for the first, 6.37 for the second. The first is the more potent here.

Going from `C[C@H](NC(=O)c1cc[nH]n1)c1ccc(OC2CCN(c3cccc(C(F)(F)F)n3)C2)cc1` (stereo partly shown) [Example 2.64] to `Cc1cncc(C(=O)N[C@@H](C)c2ccc(OC3CCN(c4cccc(C(F)(F)F)n4)C3)cc2)c1` (stereo partly shown) [Example 2.50], the pIC50 falls from 7.35 to 6.05 (1.30 log units).

Compared with `CC(=O)N[C@@H](C)c1ccc(OC2CCN(c3ccc(OC(C)C)nc3)C2)cc1` (stereo partly shown) [Example 1.10], `CC[C@H](C)Oc1cc(N2CC[C@@H](Oc3ccc([C@H](C)NC(C)=O)cc3)C2)ccn1` [Example 9.27] is 1.18 log units higher in pIC50: 6.08 for the first, 7.26 for the second.

Compared with `COCC(C)Oc1cc(N2CC[C@@H](Oc3ccc([C@H](C)NC(C)=O)cc3)C2)ccn1` (stereo partly shown) [Example 9.3], `Cc1occc1C(=O)N[C@@H](C)c1ccc(OC2CCN(c3ccnc(OC(C)C)c3)C2)cc1` (stereo partly shown) [Example 2.12] is 0.28 log units lower in pIC50: 6.32 for the first, 6.04 for the second.

First: CC(=O)N[C@@H](C)c1ccc(O[C@@H]2CCN(c3ccnc(OCC(C)O)c3F)C2)cc1 (stereo partly shown) [Example 9.74]
Second: CCOc1nccc(N2CC[C@@H](Oc3ccc([C@H](C)NC(C)=O)cc3)C2)c1OC [Example 1.95]
The pIC50 of the first is 0.43 log units lower: 6.66 for the first, 7.09 for the second.

`CC(C)Oc1cc(N2CCC(Oc3ccc([C@H](C)NC(=O)C4(C(F)(F)F)CC4)cc3)C2)ccn1` (stereo partly shown) [Example 2.17] and `CC(C)Oc1cc(N2CCC(Oc3ccc([C@H](C)NC(=O)c4ccncc4)cc3)C2)ccn1` (stereo partly shown) [Example 2.9] are within 0.2 log units of each other in pIC50: 6.22 for the first, 6.06 for the second.

`CCCNc1nccc(N2CC[C@@H](Oc3ccc([C@H](C)NC(C)=O)cc3)C2)c1Cl` [Example 1.135] and `COc1c(N2CC[C@@H](Oc3ccc([C@H](C)NC(C)=O)cc3)C2)ccnc1OCC1CC1(F)F` (stereo partly shown) [Example 14.2] are within 0.2 log units of each other in pIC50: 7.21 for the first, 7.35 for the second.

`CC(=O)N[C@@H](C)c1ccc(O[C@@H]2CCN(c3ccnc(OCc4cccc(F)c4)c3)C2)cc1` [Example 9.21] showed a pIC50 of 6.32.
